The structures appear in SMILES notation. “And” between values parts separate entries of the source, which are not always exact repeats. Equal entries are not always repeated. Inconclusive results and toxic doses are left out.

Consider 24 compounds from PubChem BioAssay AID256 (DTP/NCI, 2004).

This assay concerns CD2F1 mice, L1210 leukemia ip, survival T/C. As to the kind of experiment: NCI In Vivo Anticancer Drug Screen. Data for tumor model L1210 Leukemia (intraperitoneal) in CD2F1 (CDF1) mice. The settings on record: higher = longer survival. The method, boiled down:
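Antitumor effect is scored in animals hosting a serially transplanted tumor. Values compare compound-dosed animals against vehicle-only controls as a simple quotient.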

Where [1] appears, read: endpoint: mean survival time, dose: 100.0 mg/kg/injection, schedule: Q04DX002 (ip), vehicle: saline with Tween-80.
Setting [2] is: endpoint: mean survival time, dose: 200.0 mg/kg/injection, schedule: Q04DX002 (ip), vehicle: saline with Tween-80.
Where [3] appears, read: endpoint: mean survival time, dose: 400.0 mg/kg/injection, schedule: Q04DX002 (ip), vehicle: saline with Tween-80.
[4] abbreviates: endpoint: mean survival time, dose: 100.0 mg/kg/injection, schedule: Q01DX001 (ip), vehicle: saline.
Setting [5] is: endpoint: mean survival time, dose: 200.0 mg/kg/injection, schedule: Q01DX001 (ip), vehicle: saline.
Where [6] appears, read: endpoint: mean survival time, dose: 100.0 mg/kg/injection, schedule: Q04DX003 (ip), vehicle: saline with Tween-80.
The mark [7] stands for this setting: endpoint: mean survival time, dose: 200.0 mg/kg/injection, schedule: Q04DX003 (ip), vehicle: saline with Tween-80.
Where [8] appears, read: endpoint: mean survival time, dose: 400.0 mg/kg/injection, schedule: Q04DX003 (ip), vehicle: saline with Tween-80.
Where [9] appears, read: endpoint: mean survival time, dose: 50.0 mg/kg/injection, schedule: Q04DX002 (ip), vehicle: saline with Tween-80.
Where [10] appears, read: endpoint: mean survival time, dose: 100.0 mg/kg/injection, schedule: Q01DX001 (ip), vehicle: saline with Tween-80.
Where [11] appears, read: endpoint: mean survival time, dose: 200.0 mg/kg/injection, schedule: Q01DX001 (ip), vehicle: saline with Tween-80.
Where [12] appears, read: endpoint: mean survival time, dose: 400.0 mg/kg/injection, schedule: Q01DX001 (ip), vehicle: saline with Tween-80.
Where [13] appears, read: endpoint: mean survival time, dose: 400.0 mg/kg/injection, schedule: Q01DX001 (ip), vehicle: saline.

Take `CCNNC(=O)[C@@H]1[C@H](c2cc(OC)c(OC)c(OC)c2)c2cc3c(cc2[C@H](O)[C@H]1CO)OCO3`: the T/C (endpoint: mean survival time, dose: 7.8 mg/kg/injection, schedule: Q01DX Z (ip), vehicle: saline) was 100 % of control; the T/C (endpoint: mean survival time, dose: 15.6 mg/kg/injection, schedule: Q01DX Z (ip), vehicle: saline) was 96 % of control; the T/C (endpoint: mean survival time, dose: 31.3 mg/kg/injection, schedule: Q01DX Z (ip), vehicle: saline) is 103 % of control; the T/C (endpoint: mean survival time, dose: 62.5 mg/kg/injection, schedule: Q01DX Z (ip), vehicle: saline) was 111 % of control.

`O=C1OC(/C=C/c2ccccc2)=NC/1=C\c1ccccc1Cl`: the T/C under setting [1] is 103 % of control, the T/C under setting [2] was 103 % of control and the T/C under setting [3] was 91 % of control.

Turning to `COc1ccccc1NC(=O)Nc1cccc([N+](=O)[O-])c1OC`, the T/C is, setting by setting: under setting [1], 97 % of control; under setting [2], 87 % of control; under setting [3], 94 % of control.

As to `C=C(Br)C(=O)O`, the T/C reads like this: under setting [4], 93 % of control; under setting [5], 98 % of control.

As for `C/C(=N/O)c1ccc(F)cc1`, the T/C reads like this: (endpoint: mean survival time, dose: 100.0 mg/kg/injection, schedule: Q01DX009 (ip), vehicle: saline with Tween-80) 100 % of control; under setting [6], 94 % of control and 97 % of control; (endpoint: mean survival time, dose: 200.0 mg/kg/injection, schedule: Q01DX009 (ip), vehicle: saline with Tween-80) 93 % of control and 95 % of control; under setting [7], 94 % of control; (endpoint: mean survival time, dose: 400.0 mg/kg/injection, schedule: Q01DX009 (ip), vehicle: saline with Tween-80) 94 % of control and 102 % of control; under setting [8], 89 % of control and 96 % of control.

For the compound `CC(C)C(NC(=O)c1cccnc1)C(=O)O` (stereo unspecified), the T/C is, setting by setting: under setting [9], 100 % of control; under setting [10], 108 % of control; under setting [1], 100 % of control; under setting [11], 108 % of control; under setting [2], 104 % of control; under setting [12], 97 % of control.

Take `O=C(Nc1cc(Cl)c(NC(=O)c2ccccc2)c(Cl)c1)c1ccccc1`: the T/C reads like this: under setting [10], 96 % of control; under setting [11], 89 % of control; under setting [12], 86 % of control.

As for `O=C(O)Cc1cc(O)c(CC(=O)O)cc1O`, the T/C was 95 % of control under setting [1], 95 % of control under setting [2] and 91 % of control under setting [3].

Regarding `CC(=O)NC1C(OC(C)=O)C(OC(C)=O)C(OC(C)=O)C(OC(C)=O)C1OC(C)=O` (stereo unspecified), the T/C reads like this: under setting [10], 97 % of control; under setting [11], 93 % of control; under setting [12], 93 % of control.

Consider `O=P(O)(O)c1ccccc1` (tested in a mixture with another compound), for which the T/C reads like this: (endpoint: mean survival time, dose: 100.0 mg/kg/injection, schedule: Q04DX003 (ip), vehicle: saline) 100 % of control; (endpoint: mean survival time, dose: 200.0 mg/kg/injection, schedule: Q04DX003 (ip), vehicle: saline) 91 % of control; (endpoint: mean survival time, dose: 400.0 mg/kg/injection, schedule: Q04DX003 (ip), vehicle: saline) 95 % of control.

For the compound `Nc1cccc2[nH]c(=O)c3ccccc3c12`, the T/C reads like this: (endpoint: mean survival time, dose: 100.0 mg/kg/injection, schedule: Q01DX001 (ip), vehicle: carboxymethylcellulose (CMC)) 100 % of control; (endpoint: mean survival time, dose: 200.0 mg/kg/injection, schedule: Q01DX001 (ip), vehicle: carboxymethylcellulose (CMC)) 97 % of control; (endpoint: mean survival time, dose: 400.0 mg/kg/injection, schedule: Q01DX001 (ip), vehicle: carboxymethylcellulose (CMC)) 100 % of control.

`C[C@]12C[C@H](O)[C@H]3[C@@H](CCC4=CC(=O)CC[C@@]43C)[C@@H]1CC[C@@H]2C(=O)CO`: the T/C was 100 % of control (endpoint: median survival time, dose: 25.0 mg/kg/injection, schedule: Q01DX009 (sc), vehicle: steriod suspending solution); 100 % of control (endpoint: median survival time, dose: 50.0 mg/kg/injection, schedule: Q01DX009 (sc), vehicle: steriod suspending solution); 100 % of control (endpoint: median survival time, dose: 100.0 mg/kg/injection, schedule: Q01DX009 (sc), vehicle: steriod suspending solution); 100 % of control (endpoint: median survival time, dose: 200.0 mg/kg/injection, schedule: Q01DX009 (sc), vehicle: steriod suspending solution).

Take `COc1cccc(C(O)c2ccncc2C)c1OC` (stereo unspecified): the T/C was 97 % of control (endpoint: mean survival time, dose: 25.0 mg/kg/injection, schedule: Q01DX009 (ip), vehicle: Klucel (hydroxypropylcellulose) (HPC)); 97 % of control (endpoint: mean survival time, dose: 50.0 mg/kg/injection, schedule: Q01DX009 (ip), vehicle: Klucel (hydroxypropylcellulose) (HPC)); 95 % of control (endpoint: mean survival time, dose: 100.0 mg/kg/injection, schedule: Q01DX009 (ip), vehicle: Klucel (hydroxypropylcellulose) (HPC)); 98 % of control (endpoint: mean survival time, dose: 200.0 mg/kg/injection, schedule: Q01DX009 (ip), vehicle: Klucel (hydroxypropylcellulose) (HPC)).

For the compound `NC(CNC(=O)CBr)C(=O)O` (stereo unspecified), the T/C by setting is: (endpoint: median survival time, dose: 3.0 mg/kg/injection, schedule: Q01DX009 (ip), vehicle: water) 111 % of control; (endpoint: median survival time, dose: 6.0 mg/kg/injection, schedule: Q01DX009 (ip), vehicle: water) 122 % of control and 124 % of control; (endpoint: median survival time, dose: 12.5 mg/kg/injection, schedule: Q01DX009 (ip), vehicle: water) 122 % of control; (endpoint: median survival time, dose: 24.0 mg/kg/injection, schedule: Q01DX009 (ip), vehicle: water) 156 % of control; (endpoint: median survival time, dose: 25.0 mg/kg/injection, schedule: Q01DX009 (ip), vehicle: water) 120 % of control; (endpoint: median survival time, dose: 48.0 mg/kg/injection, schedule: Q01DX009 (ip), vehicle: water) 156 % of control.

In the case of `CCOC(=O)c1cc(-c2ccccc2)nc2c(Cl)cc(Cl)cc12`, the T/C was 94 % of control under setting [4], 90 % of control under setting [5] and 96 % of control under setting [13].

Turning to `Nc1nc2nc[n-]c2c(=O)[nH]1.[NH2-].[NH2-].[NH2-].[NH2-].[NH2-].[Ru+6]`, the T/C was 96 % of control (endpoint: mean survival time, dose: 6.25 mg/kg/injection, schedule: Q04DX003 (ip), vehicle: water); 96 % of control (endpoint: mean survival time, dose: 12.5 mg/kg/injection, schedule: Q04DX003 (ip), vehicle: water); 102 % of control (endpoint: mean survival time, dose: 25.0 mg/kg/injection, schedule: Q04DX003 (ip), vehicle: water).

`OCC(O)C1OC(OC2CCCCC2)C(O)C(O)C1O` (stereo unspecified): the T/C is 95 % of control under setting [4], 101 % of control under setting [5] and 96 % of control under setting [13].

As for `COC(=O)C(N)Cc1ccc(OC(c2ccccc2)(c2ccccc2)c2ccccc2)cc1` (stereo unspecified), the T/C (endpoint: mean survival time, dose: 50.0 mg/kg/injection, schedule: Q01DX009 (ip), vehicle: saline) is 100 % of control; the T/C (endpoint: mean survival time, dose: 100.0 mg/kg/injection, schedule: Q01DX009 (ip), vehicle: saline) is 92 % of control; the T/C (endpoint: mean survival time, dose: 200.0 mg/kg/injection, schedule: Q01DX009 (ip), vehicle: saline) was 94 % of control; the T/C (endpoint: mean survival time, dose: 400.0 mg/kg/injection, schedule: Q01DX009 (ip), vehicle: saline) was 94 % of control.

Take `CCO/C=N/NC(=O)CNC(=O)C=[N+]=[N-]`: the T/C is 108 % of control under setting [6], 103 % of control under setting [7] and 108 % of control under setting [8].

For `COC(=O)c1cc(C)c(C)cc1NC1OC(CO)C(O)C1O` (stereo unspecified), the T/C reads like this: under setting [4], 91 % of control; under setting [5], 89 % of control; under setting [13], 86 % of control.

With `Nc1nc(N)c2nc(-c3ccccc3)c(N)nc2n1`, the T/C runs as follows: (endpoint: mean survival time, dose: 12.5 mg/kg/injection, schedule: Q01DX009 (ip), vehicle: saline with Tween-80) 97 % of control; (endpoint: mean survival time, dose: 12.5 mg/kg/injection, schedule: Q04DX003 (ip), vehicle: saline with Tween-80) 102 % of control; (endpoint: mean survival time, dose: 25.0 mg/kg/injection, schedule: Q01DX009 (ip), vehicle: saline with Tween-80) 98 % of control; (endpoint: mean survival time, dose: 25.0 mg/kg/injection, schedule: Q04DX003 (ip), vehicle: saline with Tween-80) 95 % of control; (endpoint: mean survival time, dose: 50.0 mg/kg/injection, schedule: Q01DX009 (ip), vehicle: saline with Tween-80) 94 % of control; (endpoint: mean survival time, dose: 50.0 mg/kg/injection, schedule: Q04DX003 (ip), vehicle: saline with Tween-80) 98 % of control.

As for `O=C(O)c1c(Cl)c(Cl)c(Cl)c(Cl)c1Cl`, the T/C under setting [6] is 98 % of control, the T/C under setting [7] is 98 % of control and the T/C under setting [8] was 98 % of control.

In the case of `Cc1cc(C(C(N)=O)c2ccccc2)ccc1N(CCCl)CCCl` (stereo unspecified), the T/C was 122 % of control (endpoint: mean survival time, dose: 88.8 mg/kg/injection, schedule: Q01DX001 (ip), vehicle: other) and 104 % of control (endpoint: mean survival time, dose: 300.0 mg/kg/injection, schedule: Q01DX001 (ip), vehicle: other).

Take `O=C(O)C(=O)O.O=N[O-].O=N[O-].[Co+2].[NH2-].[NH2-]`: the T/C runs as follows: (endpoint: mean survival time, dose: 25.0 mg/kg/injection, schedule: Q04DX002 (ip), vehicle: saline with Tween-80) 93 % of control; under setting [9], 117 % of control; under setting [1], 98 % of control.
